How the values were obtained:
[1] = tested on: IgE antibodies from patients; assay: Epitope mapping (3): alanine scanning; design: species or system human; settings: positions numbered within the region important for binding; no influence on IgE binding when substituted by alanine
Procedure: From the amino acid sequences identified above in (A), a library of peptide fragments in which N-terminal amino acids were substituted one by one by alanine according to a technique called alanine scanning (Non Patent Literature 5) was prepared by the same technique as described above. The presence or absence of binding of an IgE antibody present in the serum of a patient and a non-fish-allergic subject to each peptide fragment was measured by the same technique as described above. Amino acids at positions where the binding activity against IgE antibodies from patients were lost or decreased by the substitution by alanine while binding activity against IgE antibodies from non-fish-allergic subjects arose were confirmed as amino acids important for exertion of original antigenicity, or amino acids influencing exertion of original antigenicity.
Chemiluminescence intensity in images obtained by measurement was converted into a numeric value in the same manner as in (A) using ImageQuant TL (GE Healthcare). When values obtained using the sequences (SEQ ID NOs: 150-204) that were of the peptides confirmed to bind to an IgE antibody in a patient specific manner from the images obtained from results about the serum of 5 patients and served as the basis of overlapping were defined as 100%, it was determined that: a peptide having a value of less than 20% had no binding activity against IgE antibodies; a peptide having a value of 20% or more and less than 50% had binding activity, albeit poor, against IgE antibodies; a peptide having a value of 50% or more and less than 70% had binding activity, albeit somewhat poor, against IgE antibodies; a peptide having a value of 70% or more and less than 90% had equivalent binding activity against IgE antibodies; and a peptide having a value of 90% or more had almost equivalent or good binding activity against IgE antibodies and was thus a peptide had remaining binding activity against IgE antibodies.
By this analysis, common sequences important for exertion of original antigenicity were found in regions important for binding to IgE antibodies from patients, in the sequences serving as the basis of overlapping.

[2] = tested on: IgE antibodies from patients; assay: Epitope mapping (2): overlapping 10-amino-acid peptide fragments shifted by one amino acid; type: binding, human; settings: positions numbered within the 15-amino-acid epitope; serum of 5 patients
Description: On the basis of the sequences (SEQ ID NOs: 150-154 for alpha-actinin-3, SEQ ID NO: 155 for EEF1A2 binding protein-like, SEQ ID NOs: 156 and 157 for alpha-1,4-glucan phosphorylase, SEQ ID NOs: 158 and 159 for elongation factor 2, SEQ ID NOs: 160-162 for heat shock cognate 70 kDa protein, SEQ ID NOs: 163-167 for serotransferrin, SEQ ID NOs: 168-171 for myosin binding protein H-like, SEQ ID NOs: 172-174 for desmin (fragment), SEQ ID NOs: 175-178 for capping protein (actin filament) muscle Z-line beta, SEQ ID NOs: 179-185 for myosin heavy chain, fast skeletal muscle-like, SEQ ID NO: 186 for glycogen phosphorylase, muscle form-like, SEQ ID NOs: 187-196 for myosin-binding protein C, fast-type-like, SEQ ID NO: 197 for ATP synthase subunit beta, mitochondrial, SEQ ID NO: 198 for L-lactate dehydrogenase A chain-like, SEQ ID NO: 199 for aldolase, SEQ ID NOs: 200-202 for β-enolase, and SEQ ID NOs: 203 and 204 for glyceraldehyde-3-phosphate dehydrogenase) of the peptides bound to an IgE antibody in serum in a patient-specific manner as described above in (A), a library of overlapping peptide fragments (length: 10 amino acids) was prepared using the sequences of the peptides and sequences in which sequences were added so as to flank each peptide in the amino acid sequences of allergen components (SEQ ID NO: 2 for alpha-actinin-3, SEQ ID NO: 5 for EEF1A2 binding protein-like, SEQ ID NO: 10 for alpha-1,4-glucan phosphorylase, SEQ ID NO: 19 for elongation factor 2, SEQ ID NO: 26 for heat shock cognate 70 kDa protein, SEQ ID NO: 33 for serotransferrin, SEQ ID NO: 43 for myosin binding protein H-like, SEQ ID NO: 56 for desmin (fragment), SEQ ID NO: 61 for capping protein (actin filament) muscle Z-line beta, SEQ ID NO: 70 for myosin heavy chain, fast skeletal muscle-like, SEQ ID NO: 110 for glycogen phosphorylase, muscle form-like, SEQ ID NO: 121 for myosin-binding protein C, fast-type-like, SEQ ID NO: 138 for ATP synthase subunit beta, mitochondrial, SEQ ID NO: 144 for L-lactate dehydrogenase A chain-like, SEQ ID NO: 445 for aldolase, SEQ ID NO: 446 for β-enolase, and SEQ ID NO: 447 for glyceraldehyde-3-phosphate dehydrogenase) comprising the sequences of the peptide. Epitope mapping was carried out using the library.
The peptides to be synthesized were shifted by one amino acid.
The library was prepared by the same procedure as described above in (A), and the presence or absence of binding of an IgE antibody present in the serum of a patient and a non-fish-allergic subject to each peptide fragment was measured by the same technique as described above. Amino acids at positions where the binding activity against IgE antibodies from patients were lost or decreased in the peptides shifted by one amino acid while binding activity against IgE antibodies from non-fish-allergic subjects arose were confirmed as amino acids adversely affecting the specificity of binding to IgE antibodies.
Chemiluminescence intensity in images obtained by measurement was converted into a numeric value in the same manner as in (A) using ImageQuant TL (GE Healthcare). […]

[3] = tested on: IgE antibody present in the serum of a fish-allergic patient; assay: Epitope mapping (1): peptide array of overlapping 15-amino-acid peptides; type: binding, human; settings: average of 5 patients / average of 4 non-fish-allergic subjects at least 1.5, Mann-Whitney U test
Procedure: Epitope mapping was carried out using a library of overlapping peptides (length: 15 amino acids) corresponding to the amino acid sequences identified as allergy components of fish and the amino acid sequences of known fish allergy antigens aldolase, β-enolase, and glyceraldehyde-3-phosphate dehydrogenase (Non Patent Literature 2-4). Specifically, the library of overlapping peptides was prepared on the basis of the amino acid sequences of SEQ ID NO: 2 for alpha-actinin-3, SEQ ID NO: 5 for EEF1A2 binding protein-like, SEQ ID NO: 10 for alpha-1,4-glucan phosphorylase, SEQ ID NO: 19 for elongation factor 2, SEQ ID NO: 26 for heat shock cognate 70 kDa protein, SEQ ID NO: 33 for serotransferrin, SEQ ID NO: 43 for myosin binding protein H-like, SEQ ID NO: 56 for desmin (fragment), SEQ ID NO: 61 for capping protein (actin filament) muscle Z-line beta, SEQ ID NO: 70 for myosin heavy chain, fast skeletal muscle-like, SEQ ID NO: 110 for glycogen phosphorylase, muscle form-like, SEQ ID NO: 121 for myosin-binding protein C, fast-type-like, SEQ ID NO: 138 for ATP synthase subunit beta, mitochondrial, SEQ ID NO: 144 for L-lactate dehydrogenase A chain-like, SEQ ID NO: 445 for aldolase, SEQ ID NO: 446 for β-enolase, and SEQ ID NO: 447 for glyceraldehyde-3-phosphate dehydrogenase.
The peptides to be synthesized were shifted by 10 amino acids.
For preparation of peptide arrays, the Intavis CelluSpots™ technique was used. Specifically, the peptide arrays were prepared by the following procedure: (1) synthesizing peptides of interest on amino-modified cellulose disks using an automated chemical synthesis apparatus (Intavis MultiPep RS), (2) dissolving the amino-modified cellulose disks to obtain a cellulose-bound peptide solution, and (3) spotting the cellulose-bound peptides onto coated glass slides. The details of each procedure are as described below.
The presence or absence of binding, to each peptide fragment, of an IgE antibody present in the serum of a fish-allergic patient was measured through antigen-antibody reaction using the peptide arrays. The measurement was carried out according to the following procedure. • (1) The peptides were shaken at room temperature for 1 hour in PBST. • (2) The peptide arrays were shaken at overnight at room temperature in 5% serum/PBST. • (3) The peptide arrays were washed with a PBST solution (a PBS buffer containing 0.1% Tween 20 nonionic surfactant) for 5 minutes (×3). • (4) Anti-human IgE antibody-HRP(1:5,000, PBST) was added thereto, and the peptide arrays were shaken at room temperature for 1 hour. • (5) The peptide arrays were washed with a PBST solution for 5 minutes (×3). • (6) Pierce ECL Plus Western Blotting Substrate (produced by Thermo Fisher Scientific) was added thereto, and the peptide arrays were shaken at room temperature for 5 minutes. • (7) The chemiluminescence of the peptides treated as described above in (1) to • (6) was measured using Amersham Imager 600.
Chemiluminescence intensity in images obtained by the measurement described above in (7) was converted into a numeric value using ImageQuant TL (GE Healthcare). The average value of numeric values determined from images obtained from results about the serum of 5 patients was divided by the average value of numeric values determined from images obtained from results about the serum of 4 non-fish-allergic subjects. It was determined that a peptide having a calculated value (average value of the patient group/average value of the non-fish-allergic subject group) of at least 1.5 and a significant difference of […] in the Mann-Whitney U test was a peptide bound to an IgE antibody in a patient-specific manner.

Positions of amino acids of region important for binding in epitope [2] | IgE antibody binding in a patient-specific manner [3] | Substance | Non-binding-influencing amino acid in region important for binding [1]
6-15 | – | 53 (NLKNVIKAKYGKDAT; epitope) [compound 53] | 3-6
– | – | 18 (YYGYNGAFRCLVEDA; epitope) [compound 18] | 2
1-15 | – | 4 (TKLRLSNRPAFMPSE; epitope) [compound 4] | –
– | – | 52 (YRHIADLAGHKDVIL; epitope) [compound 52] | 2-4
– | – | 12 (EAEQYKAADDVQRDK; heat shock cognate 70 kDa protein epitope) [compound 12] | 2
3-14 | – | 29 (DNQKYRQLQKELSQV; epitope) [compound 29] | –
– | bind in a patient-specific manner | 48 (NVAKAHGGYSVFAGV; epitope) [compound 48] | –
– | – | SEQ ID NO: 210: region important for binding, amino acids at positions 9-14 of epitope 1 (SEQ ID NO: 150) (DKGKMR; epitope) | 3-5
– | bind in a patient-specific manner | 50 (SYGRALQASALKAWG; epitope) [compound 50] | –
– | – | SEQ ID NO: 207: region important for binding, amino acids at positions 1-10 of epitope 1 (SEQ ID NO: 150) (SGERLPKPDK; epitope) | 2-6
6-13 | – | 51 (DGDKSRYLGKGTVKA; epitope) [compound 51] | 7
– | bind in a patient-specific manner | 10 (GKSTLTDSLVSKAGI; epitope) [compound 10] | –
– | bind in a patient-specific manner | 9 (AIMDKKSNIRNMSVI; epitope) [compound 9] | –
2-12 | – | 27 (IHVVEVQEKSSGRTA; epitope) [compound 27] | –
2-15 | – | 21 (KEVIDYKPTPFVEHD; epitope) [compound 21] | –
– | – | 44 (YTFIPDGYALSLSAK; epitope) [compound 44] | 2-4
8-15 | – | 15 (YSGAFQCLKDGAGEV; epitope) [compound 15] | –
5-14 | – | 34 (EEDKVNTLTKAKTKL; epitope) [compound 34] | –
1-7 | – | 25 (DVGRSAEVHSKKTVL; epitope) [compound 25] | –
1-10 | – | 32 (LYPPPPPEDKAKKGG; epitope) [compound 32] | –
2-8 | – | 40 (TDLRGLLKRLKKMKT; epitope) [compound 40] | –
– | – | 30 (TVTALDFREGKEFKD; epitope) [compound 30] | 2-4
2-13 | – | 46 (RQKYIRRVGDKINLT; epitope) [compound 46] | –
– | – | 26 (VILIKKAGDGSKKIK; epitope) [compound 26] | 3-5
– | – | 19 (RYVKKVGEKINIVIP; epitope) [compound 19] | 3
3-7 | – | 45 (GAPVTGYLMERKKKG; epitope) [compound 45] | –
– | – | 38 (LKATKKKKKPVVDEE; epitope) [compound 38] | 2
7-15 | – | 31 (YNSMEQLCINFTNEK; epitope) [compound 31] | 2
– | – | 13 (KLSDEDKQKILDKCN; epitope) [compound 13] | 4
1-15 | – | 3 (SCFYHAFAGAEQAET; epitope) [compound 3] | 2
